Measurements published in US20240254124A1, “AZAINDOLE ROCK INHIBITORS” (priority 2022, published 2024).

Assays:
[1] = 24 hour rat pharmacokinetics; conditions: male
[2] = 24 hour mouse pharmacokinetics; type: in vivo, B6SJLF1/J mice
Procedure: Groups 2, 3, 4, 6, and 8: Test article was dissolved in a minimal amount of DMSO (Groups 2, 4, 6, 8: 40-50 μL, Group 3: 100 μL), 0.5% methylcellulose was added to final volume, then solution was sonicated for 2 minutes.
Group 7: Test article was dissolved in 100 μL DMSO, saline was added to final volume, then solution was sonicated for 2 minutes.
Groups 1, 5: The test article was administered as a single dose via slow bolus intravenous administration into a lateral tail vein, with a 27G needle.
Groups 2, 4, 6, 7, 8: The test article was administered as a single dose directly to the stomach by oral gavage.
Group 3: The test article was administered as a single dose in two parts with an approximate 1-2-minute rest between due to volume administered.
Approximately 150 μL of blood was collected by tail nick for the first time point and then the maximal volume by cardiac stick for the second, terminal time point in each mouse. The plasma was spun and separated within 30 minutes of collection and stored frozen at −20° C. until shipment.
Prior to the terminal blood collection, CSF was collected. […] The resulting data is shown in Tables 13, 14, 15, 16 and 17 below.

[3] = target: hERG (Homo sapiens (Human), UniProt Q12809); experiment: biochemical
[4] = target: ROCK2 (Homo sapiens (Human), UniProt O75116); experiment: ROCK2 inhibition assay (HotSpot, 33P-ATP); type: biochemical
[5] = target: PRKX (Homo sapiens (Human), UniProt P51817); experiment: PRKX inhibition assay (HotSpot, 33P-ATP); type: biochemical; conditions: Table 2B; 10 μM ATP; Compound 1 is geometric mean of multiple experiments
Procedure: (§1) Compounds as a powder were dissolved in dimethyl sulfoxide to make a 10 mM stock. […] The HotSpot kit employing ^33P-ATP was used with reactions conducted at 10 μM ATP for each tested enzyme. The percent activity relative to DMSO controls for each concentration was then fitted to a curve using GraphPad Prism to determine the IC50. […] Each experiment was run in the same lab with this procedure.

[6] = target: ROCK1 (Homo sapiens (Human), UniProt Q13464); experiment: ROCK1 inhibition assay (HotSpot, 33P-ATP); type: biochemical; conditions: Table 2A; 10 μM ATP
[7] = target: PKA (Homo sapiens (Human), UniProt P17612); experiment: PKA inhibition assay (HotSpot, 33P-ATP); type: biochemical; conditions: Table 2B; 10 μM ATP; Compound 1 is geometric mean of multiple experiments
Procedure: as §1

Sequence of ROCK2 (O75116 whole entry): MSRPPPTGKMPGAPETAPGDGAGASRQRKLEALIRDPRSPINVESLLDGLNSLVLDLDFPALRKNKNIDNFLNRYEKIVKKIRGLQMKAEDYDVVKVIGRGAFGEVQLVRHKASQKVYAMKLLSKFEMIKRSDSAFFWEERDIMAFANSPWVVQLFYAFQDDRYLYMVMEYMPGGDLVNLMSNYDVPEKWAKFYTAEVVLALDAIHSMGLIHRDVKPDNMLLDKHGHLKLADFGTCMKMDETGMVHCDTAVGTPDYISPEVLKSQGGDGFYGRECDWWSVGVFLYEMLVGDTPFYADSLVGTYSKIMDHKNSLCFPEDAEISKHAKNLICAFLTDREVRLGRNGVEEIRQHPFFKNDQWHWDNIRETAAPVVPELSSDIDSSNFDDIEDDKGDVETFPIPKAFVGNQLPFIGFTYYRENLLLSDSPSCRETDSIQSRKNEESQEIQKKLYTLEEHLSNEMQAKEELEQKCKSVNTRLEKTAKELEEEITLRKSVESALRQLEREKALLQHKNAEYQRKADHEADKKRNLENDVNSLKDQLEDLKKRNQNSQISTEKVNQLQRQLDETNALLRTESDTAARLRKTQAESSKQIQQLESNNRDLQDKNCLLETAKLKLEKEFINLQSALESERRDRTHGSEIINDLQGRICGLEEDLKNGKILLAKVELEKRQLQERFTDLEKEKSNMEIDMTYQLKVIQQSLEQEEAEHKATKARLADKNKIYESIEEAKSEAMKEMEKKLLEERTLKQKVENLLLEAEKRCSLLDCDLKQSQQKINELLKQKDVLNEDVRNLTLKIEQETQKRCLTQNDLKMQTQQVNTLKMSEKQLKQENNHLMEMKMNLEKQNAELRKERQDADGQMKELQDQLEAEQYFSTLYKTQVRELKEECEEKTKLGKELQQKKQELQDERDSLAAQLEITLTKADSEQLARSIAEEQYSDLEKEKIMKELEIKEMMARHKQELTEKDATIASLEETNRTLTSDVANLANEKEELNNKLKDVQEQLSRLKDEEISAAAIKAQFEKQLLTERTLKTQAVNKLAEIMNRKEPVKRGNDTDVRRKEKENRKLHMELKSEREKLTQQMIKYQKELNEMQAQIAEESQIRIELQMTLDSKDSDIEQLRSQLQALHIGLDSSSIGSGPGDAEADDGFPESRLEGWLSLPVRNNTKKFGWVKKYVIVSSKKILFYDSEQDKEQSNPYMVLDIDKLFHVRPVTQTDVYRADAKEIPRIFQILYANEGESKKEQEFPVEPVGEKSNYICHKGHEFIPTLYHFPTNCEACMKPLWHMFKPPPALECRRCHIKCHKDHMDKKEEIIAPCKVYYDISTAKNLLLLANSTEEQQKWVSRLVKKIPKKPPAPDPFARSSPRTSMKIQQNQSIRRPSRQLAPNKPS
Sequence of ROCK1 (Q13464 whole entry): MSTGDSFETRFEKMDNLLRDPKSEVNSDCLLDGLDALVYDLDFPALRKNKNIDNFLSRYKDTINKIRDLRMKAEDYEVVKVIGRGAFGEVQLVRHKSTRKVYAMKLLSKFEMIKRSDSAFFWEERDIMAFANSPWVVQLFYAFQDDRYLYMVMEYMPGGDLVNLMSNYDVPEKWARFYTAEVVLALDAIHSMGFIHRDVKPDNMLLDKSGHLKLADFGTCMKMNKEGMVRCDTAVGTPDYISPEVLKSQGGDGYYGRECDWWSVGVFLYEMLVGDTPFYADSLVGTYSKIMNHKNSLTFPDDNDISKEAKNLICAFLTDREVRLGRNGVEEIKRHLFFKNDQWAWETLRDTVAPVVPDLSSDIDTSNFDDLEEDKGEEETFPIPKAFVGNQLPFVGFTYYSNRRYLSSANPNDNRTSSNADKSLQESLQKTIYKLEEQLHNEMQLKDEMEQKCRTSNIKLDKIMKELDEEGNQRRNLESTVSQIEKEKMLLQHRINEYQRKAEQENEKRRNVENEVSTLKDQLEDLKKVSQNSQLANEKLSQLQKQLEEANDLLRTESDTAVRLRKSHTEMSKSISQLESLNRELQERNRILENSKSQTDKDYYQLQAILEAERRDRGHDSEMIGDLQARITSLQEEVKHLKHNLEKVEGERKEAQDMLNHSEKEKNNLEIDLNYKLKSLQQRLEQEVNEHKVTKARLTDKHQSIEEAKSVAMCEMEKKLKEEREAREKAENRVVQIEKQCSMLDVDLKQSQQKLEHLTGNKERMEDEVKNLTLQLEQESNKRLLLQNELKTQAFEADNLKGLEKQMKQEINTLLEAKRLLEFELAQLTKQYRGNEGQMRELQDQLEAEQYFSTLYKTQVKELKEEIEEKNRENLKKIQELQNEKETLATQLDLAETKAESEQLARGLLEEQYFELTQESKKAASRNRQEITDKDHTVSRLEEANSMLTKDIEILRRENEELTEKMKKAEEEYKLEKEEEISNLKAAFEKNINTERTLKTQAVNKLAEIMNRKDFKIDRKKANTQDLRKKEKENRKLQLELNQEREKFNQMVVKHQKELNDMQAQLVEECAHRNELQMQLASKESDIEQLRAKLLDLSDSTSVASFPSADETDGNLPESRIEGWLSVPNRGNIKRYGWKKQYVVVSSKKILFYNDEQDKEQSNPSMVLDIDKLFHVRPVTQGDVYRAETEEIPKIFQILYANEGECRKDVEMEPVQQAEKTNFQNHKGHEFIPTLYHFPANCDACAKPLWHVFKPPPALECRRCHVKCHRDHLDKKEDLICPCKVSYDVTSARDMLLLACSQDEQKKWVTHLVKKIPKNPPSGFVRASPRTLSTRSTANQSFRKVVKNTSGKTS
Sequence of hERG (Q12809 whole entry): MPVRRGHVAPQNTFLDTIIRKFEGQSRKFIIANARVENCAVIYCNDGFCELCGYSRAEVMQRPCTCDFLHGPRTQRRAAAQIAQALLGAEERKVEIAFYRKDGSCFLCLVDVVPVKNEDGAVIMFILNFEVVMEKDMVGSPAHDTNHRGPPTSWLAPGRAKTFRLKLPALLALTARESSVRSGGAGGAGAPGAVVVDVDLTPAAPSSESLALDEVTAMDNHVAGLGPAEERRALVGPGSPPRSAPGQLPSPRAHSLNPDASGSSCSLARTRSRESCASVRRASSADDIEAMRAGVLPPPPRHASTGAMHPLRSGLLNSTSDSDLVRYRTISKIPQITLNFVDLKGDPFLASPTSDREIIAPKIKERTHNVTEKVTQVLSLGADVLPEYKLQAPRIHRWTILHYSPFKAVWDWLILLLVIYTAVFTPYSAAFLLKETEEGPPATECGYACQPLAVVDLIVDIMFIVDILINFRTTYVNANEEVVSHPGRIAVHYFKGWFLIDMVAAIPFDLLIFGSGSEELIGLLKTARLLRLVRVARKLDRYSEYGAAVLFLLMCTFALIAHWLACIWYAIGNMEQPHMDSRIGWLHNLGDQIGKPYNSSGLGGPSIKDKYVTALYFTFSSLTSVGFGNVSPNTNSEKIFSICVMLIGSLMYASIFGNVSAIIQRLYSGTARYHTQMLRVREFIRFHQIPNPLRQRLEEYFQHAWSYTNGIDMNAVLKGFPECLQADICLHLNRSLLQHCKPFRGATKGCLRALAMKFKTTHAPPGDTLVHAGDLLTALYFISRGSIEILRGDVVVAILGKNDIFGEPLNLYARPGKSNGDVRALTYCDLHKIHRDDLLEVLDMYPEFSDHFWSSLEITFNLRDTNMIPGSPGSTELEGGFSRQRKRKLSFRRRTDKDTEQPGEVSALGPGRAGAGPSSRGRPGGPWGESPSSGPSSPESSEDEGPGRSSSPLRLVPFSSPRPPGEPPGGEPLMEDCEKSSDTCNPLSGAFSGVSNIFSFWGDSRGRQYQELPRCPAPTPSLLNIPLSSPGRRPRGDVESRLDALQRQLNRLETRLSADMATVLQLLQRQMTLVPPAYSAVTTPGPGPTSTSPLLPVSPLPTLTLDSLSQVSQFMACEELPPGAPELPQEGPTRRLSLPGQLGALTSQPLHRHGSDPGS
Sequence of PRKX (P51817 whole entry): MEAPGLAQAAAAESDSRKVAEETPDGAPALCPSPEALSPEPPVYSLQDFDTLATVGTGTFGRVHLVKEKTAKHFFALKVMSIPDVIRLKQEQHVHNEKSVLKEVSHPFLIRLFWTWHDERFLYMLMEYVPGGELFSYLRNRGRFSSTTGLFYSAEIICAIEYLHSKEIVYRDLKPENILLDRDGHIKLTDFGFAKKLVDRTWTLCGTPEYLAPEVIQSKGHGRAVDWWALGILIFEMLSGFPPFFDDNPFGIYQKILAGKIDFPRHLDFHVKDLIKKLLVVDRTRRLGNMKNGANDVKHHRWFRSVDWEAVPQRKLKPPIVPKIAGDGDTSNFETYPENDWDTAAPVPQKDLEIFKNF

Row | AUC0-t/D ([1]; IV 3 mg/kg) | AUC0-t/D ([1]; PO 10 mg/kg) | AUC0-t/D ([2]; IV 3 mg/kg, male) | AUC0-t/D ([2]; PO 10 mg/kg, female) | AUC0-t/D ([2]; PO 10 mg/kg, male) | AUC0-t/D ([2]; PO 100 mg/kg, male) | Ratio to 10 mg/kg Dose Level, AUC0-∞ ([2]; PO 100 mg/kg, male) | concentration required to inhibit half of ROCK2's activity, lower than Fasudil ([4]; head-to-head against Fasudil) | IC50 [5] | IC50 ([4]; Table 2A, 10 μM ATP) | IC50 [6] | IC50 [7] | SMILES | Kd [3]
1 | 1541 (h * ng/ml)/(mg/kg) | 261 (h * ng/ml)/(mg/kg) | 3380 (h * ng/ml)/(mg/kg) | 567 (h * ng/ml)/(mg/kg) | 535 (h * ng/ml)/(mg/kg) | 441 (h * ng/ml)/(mg/kg) | 8.00 | more than 50 fold | – | – | – | – | Cn1c(C(=O)NCc2ccccc2F)cc2ccc(-c3cn[nH]c3)nc21 [Compound 1, N-(2-fluorobenzyl)-1-methyl-6-(1H-pyrazol-4-yl)-1H-pyrrolo[2,3-b]pyridine-2-carboxamide] | > 100000 nM
2 | – | – | – | – | – | – | – | – | 32.3 nM | 10.1 nM | 35.6 nM | 103 nM | Cc1[nH]ncc1-c1ccc2cc(C(=O)NCc3c(Cl)cccc3C3(O)CC3)[nH]c2n1 [Compound 6, N-(2-chloro-6-(1-hydroxycyclopropyl)benzyl)-6-(5-methyl-1H-pyrazol-4-yl)-1H-pyrrolo[2,3-b]pyridine-2-carboxamide] | –
